What was measured:
[1] = tested on: Lethal Toxin (LT; PA + LF); design: species or system Fischer 344 rats; details: rat, in vivo
[2] = biological target: anthrax lethal factor (LF) (Bacillus anthracis, UniProt P15917); type: biochemical
Chain of anthrax lethal factor (LF) (P15917 34-809 limits assumed): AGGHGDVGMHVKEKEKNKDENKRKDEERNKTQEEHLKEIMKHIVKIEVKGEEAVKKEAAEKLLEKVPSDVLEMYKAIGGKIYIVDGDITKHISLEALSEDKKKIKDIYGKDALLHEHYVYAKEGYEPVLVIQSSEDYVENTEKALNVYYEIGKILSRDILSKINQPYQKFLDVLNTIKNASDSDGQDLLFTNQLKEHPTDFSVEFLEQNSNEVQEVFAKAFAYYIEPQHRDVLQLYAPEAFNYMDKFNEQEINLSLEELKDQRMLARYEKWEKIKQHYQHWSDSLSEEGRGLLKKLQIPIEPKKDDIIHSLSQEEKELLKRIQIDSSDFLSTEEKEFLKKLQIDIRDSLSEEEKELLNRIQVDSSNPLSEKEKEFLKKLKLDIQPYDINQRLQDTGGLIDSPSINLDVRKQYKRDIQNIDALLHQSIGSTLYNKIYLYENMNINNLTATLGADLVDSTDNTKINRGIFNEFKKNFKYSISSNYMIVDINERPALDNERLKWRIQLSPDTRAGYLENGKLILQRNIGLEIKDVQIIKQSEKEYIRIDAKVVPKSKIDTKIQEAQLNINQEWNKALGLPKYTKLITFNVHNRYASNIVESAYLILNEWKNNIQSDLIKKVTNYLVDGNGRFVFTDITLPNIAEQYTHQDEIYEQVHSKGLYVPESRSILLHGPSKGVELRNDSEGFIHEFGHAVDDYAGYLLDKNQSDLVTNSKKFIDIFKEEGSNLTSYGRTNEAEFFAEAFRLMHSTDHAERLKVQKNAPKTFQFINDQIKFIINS

Row | SMILES | protection [1] | protection (percent survival) [1] [%] | time after treatment with LT at which animals became ill ([1]; 2.5 mg/kg) | time post exposure by which animals appeared fully recovered ([1]; 2.5 mg/kg) [h] | mode of inhibition (kinetic studies) [2]
1 | Cc1cc(CNCCCC[C@@H](Nc2cc(C)c(F)c(C)c2)C(=O)NO)ccc1F [Compound 16] | fully protective | 100 | approximately 3 hours | ≤ 24 | 
2 | CO[C@H](C[C@H](CCN(C)CCCc1ccc(F)c(C)c1)C(=O)NO)c1ccc(F)cc1 [Compound 40] |  |  |  |  | competitive behavior
